Experimental data as given in PubChem BioAssay (NCI).
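Protocol summary: plate cells (96-well), add compound at 5 concentrations, incubate 48 h, interpolate endpoints linearly. TGI: concentration producing complete growth inhibition.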

How the values were obtained:
Experiment in all cases: inhibition of tumour cell growth, NCI panel, 48 h
[1] = system: MCF7 breast
[2] = system: A549 NSCLC
[3] = system: IGROV1 ovarian
[4] = system: TK-10 renal
[5] = system: NCI-H23 lung
[6] = system: DLD-1 colon
[7] = system: HOP-62 NSCLC
[8] = system: NCI-H522 lung
[9] = system: NCI-H460 lung
[10] = system: SK-OV-3 ovarian
[11] = system: COLO 205 colon
[12] = system: DMS 273 small cell lung
[13] = system: SK-MEL-5 melanoma
[14] = system: BT-549 breast
[15] = system: UACC-257 melanoma
[16] = system: SF-539 CNS
[17] = system: DMS 114 small cell lung
[18] = system: MALME-3M melanoma
[19] = system: ACHN renal
[20] = system: OVCAR-3 ovarian
[21] = system: DU-145 prostate
[22] = system: OVCAR-8 ovarian
[23] = system: HCC-2998 colon
[24] = system: HCT-116 colon
[25] = system: MDA-MB-231 breast
[26] = system: SNB-75 CNS
[27] = system: K-562 leukemia
[28] = system: HS 578T breast
[29] = system: SNB-19 CNS
[30] = system: LXFL 529 NSCLC
[31] = system: SN12C renal
[32] = system: A498 renal
[33] = system: UO-31 renal
[34] = system: CCRF-CEM leukemia
[35] = system: RPMI-8226 leukemia
[36] = system: SK-MEL-28 melanoma
[37] = system: SF-268 CNS
[38] = system: NCI-H226 lung
[39] = system: CAKI-1 renal
[40] = system: MDA-MB-435
[41] = system: HOP-18 NSCLC
[42] = system: OVCAR-4 ovarian
[43] = system: RXF 393 renal
[44] = system: HT29 colon
[45] = system: HOP-92 NSCLC
[46] = system: MOLT-4 leukemia
[47] = system: SF-295 CNS
[48] = system: EKVX NSCLC
[49] = system: NCI/ADR-RES ovarian
[50] = system: HCT-15 colon
[51] = system: SK-MEL-2 melanoma
[52] = system: KM12 colon
[53] = system: MDA-N
[54] = system: SW-620 colon
[55] = system: M14 melanoma
[56] = system: XF 498 CNS
[57] = system: OVCAR-5 ovarian
[58] = system: 786-0 renal
[59] = system: M19-MEL melanoma
[60] = system: SNB-78 CNS
[61] = system: HL-60(TB) leukemia
[62] = system: T-47D breast
[63] = system: U251 CNS
[64] = system: SR leukemia
[65] = system: UACC-62 melanoma
[66] = system: LOX IMVI melanoma
[67] = system: KM20L2 colon

With `CC1=CC(=O)c2ccc3c4ccccc4n(C)c3c2C1=O` the TGI [1] was over 100 µM, the TGI [2] was over 100 µM and the TGI [3] was over 100 µM. For the same compound, the TGI [4] was over 100 µM, the TGI [5] was over 92 µM and the TGI [6] was over 100 µM. For the same compound, the TGI [7] was over 100 µM, the TGI [8] was 78.9 µM and the TGI [9] was over 100 µM. For the same compound, the TGI [10] was over 100 µM, the TGI [11] was over 100 µM and the TGI [12] was over 100 µM. The TGI [13] was 30.5 µM, the TGI [14] was over 100 µM and the TGI [15] was over 100 µM. The TGI [16] was over 100 µM, the TGI [17] was 97.1 µM and the TGI [18] was 30 µM. For the same compound, the TGI [19] was over 100 µM, the TGI [20] was over 100 µM and the TGI [21] was over 100 µM. The TGI [22] was over 100 µM, the TGI [23] was over 100 µM and the TGI [24] was over 100 µM. It also gave a TGI [25] of over 100 µM, a TGI [26] of over 100 µM and a TGI [27] of over 100 µM. For the same compound, the TGI [28] was over 100 µM, the TGI [29] was over 100 µM and the TGI [30] was over 100 µM. The TGI [31] was over 100 µM, the TGI [32] was over 100 µM and the TGI [33] was over 100 µM. For the same compound, the TGI [34] was over 81.5 µM, the TGI [35] was over 100 µM and the TGI [36] was over 100 µM. The TGI [37] was over 100 µM, the TGI [38] was over 100 µM and the TGI [39] was over 67.5 µM. For the same compound, the TGI [40] was 33.4 µM, the TGI [41] was 42.2 µM and the TGI [42] was over 100 µM. The TGI [43] was over 100 µM, the TGI [44] was over 31.6 µM and the TGI [45] was over 100 µM. The TGI [46] was over 72.8 µM, the TGI [47] was over 100 µM and the TGI [48] was over 62.7 µM. It also gave a TGI [49] of over 100 µM, a TGI [50] of over 100 µM and a TGI [51] of 53.1 µM. The TGI [52] was over 100 µM, the TGI [53] was 33.1 µM and the TGI [54] was over 100 µM. The TGI [55] was 64.4 µM, the TGI [56] was over 100 µM and the TGI [57] was over 100 µM. For the same compound, the TGI [58] was over 100 µM, the TGI [59] was 38.2 µM and the TGI [60] was over 100 µM. For the same compound, the TGI [61] was over 72.3 µM, the TGI [62] was over 100 µM and the TGI [63] was over 100 µM.

Work on `Oc1ccc(Br)cc1C=Nc1ccc(Oc2ccc(N=Cc3cc(Br)ccc3O)cc2)cc1` yielded a TGI [64] of over 19.6 µM, a TGI [2] of over 19.6 µM and a TGI [3] of over 19.6 µM. For the same compound, the TGI [4] was over 19.6 µM, the TGI [5] was over 19.6 µM and the TGI [6] was over 19.6 µM. For the same compound, the TGI [7] was over 19.6 µM, the TGI [8] was over 19.6 µM and the TGI [9] was over 19.6 µM. It also gave a TGI [10] of over 19.6 µM, a TGI [11] of over 19.6 µM and a TGI [12] of over 19.6 µM. It also gave a TGI [13] of over 19.6 µM, a TGI [15] of over 19.6 µM and a TGI [16] of over 19.6 µM. The TGI [17] was over 19.6 µM, the TGI [18] was over 19.6 µM and the TGI [19] was over 19.6 µM. It also gave a TGI [20] of over 19.6 µM, a TGI [22] of over 19.6 µM and a TGI [23] of over 19.6 µM. It also gave a TGI [24] of over 19.6 µM, a TGI [26] of over 19.6 µM and a TGI [27] of over 19.6 µM. For the same compound, the TGI [29] was over 19.6 µM, the TGI [30] was over 19.6 µM and the TGI [31] was over 19.6 µM. It also gave a TGI [32] of over 19.6 µM, a TGI [33] of over 19.6 µM and a TGI [34] of over 19.6 µM. It also gave a TGI [35] of over 19.6 µM, a TGI [36] of over 19.6 µM and a TGI [37] of over 19.6 µM. For the same compound, the TGI [38] was over 19.6 µM, the TGI [39] was over 19.6 µM and the TGI [65] was over 19.6 µM. It also gave a TGI [41] of over 19.6 µM, a TGI [42] of over 19.6 µM and a TGI [43] of over 19.6 µM. It also gave a TGI [44] of over 19.6 µM, a TGI [45] of over 19.6 µM and a TGI [46] of over 19.6 µM. The TGI [47] was over 19.6 µM, the TGI [48] was over 19.6 µM and the TGI [66] was over 19.6 µM. It also gave a TGI [51] of over 19.6 µM, a TGI [52] of over 19.6 µM and a TGI [54] of over 19.6 µM. The TGI [55] was over 19.6 µM, the TGI [57] was over 19.6 µM and the TGI [58] was over 19.6 µM. For the same compound, the TGI [59] was over 19.6 µM, the TGI [67] was over 19.6 µM and the TGI [61] was over 19.6 µM. It also gave a TGI [63] of over 19.6 µM.
